According to PubChem BioAssay (NCI):
Where “and” joins values, the source holds several entries; their conditions need not be identical. Equal values may be shown once.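 All cell lines were grown in 96-well plates and treated with compound for 48 hours. The concentration for 50% growth inhibition is given as GI50. TGI denotes the concentration required for complete inhibition of growth.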

Legend:
Assay in all cases: growth of human tumour cells (NCI), 48 h
LOX IMVI melanoma = system: LOX IMVI melanoma
SK-MEL-2 melanoma = system: SK-MEL-2 melanoma
HL-60(TB) leukemia = system: HL-60(TB) leukemia
NCI/ADR-RES ovarian = system: NCI/ADR-RES ovarian
SN12C renal = system: SN12C renal
SK-OV-3 ovarian = system: SK-OV-3 ovarian
U251 CNS = system: U251 CNS
NCI-H522 lung = system: NCI-H522 lung
M14 melanoma = system: M14 melanoma
BT-549 breast = system: BT-549 breast

Compound | TGI (LOX IMVI melanoma) | TGI (SK-MEL-2 melanoma) | TGI (HL-60(TB) leukemia) | TGI (NCI/ADR-RES ovarian) | TGI (SN12C renal) | TGI (SK-OV-3 ovarian) | TGI (U251 CNS) | TGI (NCI-H522 lung) | TGI (M14 melanoma) | TGI (BT-549 breast) | GI50 (LOX IMVI melanoma) | GI50 (SK-MEL-2 melanoma) | GI50 (HL-60(TB) leukemia) | GI50 (NCI/ADR-RES ovarian) | GI50 (M14 melanoma)
CC(=O)Nc1ccc(Nc2nc(=O)[nH]c(=O)[nH]2)cc1 | > 100 µM | > 100 µM | > 100 µM | > 100 µM | > 100 µM | > 100 µM | > 100 µM | > 100 µM | > 100 µM | > 100 µM | – | – | – | – | –
COc1ccc(CN=CN/C(C#N)=C(\N)C#N)cc1OC | > 100 µM | > 100 µM | > 100 µM | > 100 µM | > 100 µM | > 100 µM | > 100 µM | > 100 µM | > 100 µM | > 100 µM | – | – | – | – | –
COc1ccc2c(c1)CC[C@@H]1[C@@H]2CC[C@]2(C)/C(=N/OCCN3CCCCC3)CC[C@@H]12 | 3.8 µM | 18.7 µM | 6.35 µM | 24.2 µM | 17 µM | 23.7 µM | 24.3 µM | 18.9 µM | 5.88 µM | 28.7 µM | – | – | – | – | –
CC1(C)N=C(N)N=C(N)N1c1cccc(CSc2ccccc2)c1 | > 100 µM | > 100 µM | 13.3 µM | > 100 µM | > 100 µM | > 100 µM | > 100 µM | 27.3 µM | 11.2 µM | > 100 µM | – | – | – | – | –
COc1ccc(-c2cn3c(n2)sc2cc(C)ccc23)cc1 | > 100 µM | 37.1 µM | 23 µM | > 100 µM | 88.7 µM | 98.9 µM | 21.8 µM | 51.4 µM | > 100 µM | 87.4 µM | – | – | – | – | –
COC1C(O)=C2C(=O)OC(C)(O)/C=C/C=C\C=C/C=C/C(c3ccccc3)NC(=O)/C=C/C=C/C=C/C=C/C2(C)C1O (stereo not given) | 0.16 µM and 0.234 µM | 0.235 µM and 0.318 µM | – | 0.0535 µM and 0.206 µM | 0.0649 µM and 0.0906 µM | 0.134 µM | 0.0382 µM | 0.038 µM and 0.11 µM | 0.447 µM and 0.19 µM | 0.168 µM | 0.0264 µM | 0.0929 µM | 0.113 µM | 0.0142 µM | 0.0536 µM
COC(=O)c1c(O)ccc2c1c1c(n2C)C(=O)c2ccccc2C1=O | > 100 µM | > 100 µM | > 100 µM | > 100 µM | > 100 µM | 21.5 µM | 67.5 µM | > 100 µM | > 100 µM | 45.8 µM | – | – | – | – | –
COC(=O)C(Cc1ccccc1)NC(=O)CNC(=O)CSc1nnc(COc2ccc(Cl)cc2)n1-c1ccccc1 (stereo not given) | 13.8 µM | 33.8 µM | 13.7 µM | 42 µM | 32.5 µM | 28.6 µM | 32.8 µM | 5.45 µM | 31.7 µM | 35.6 µM | – | – | – | – | –
CN(C)c1ccc(/C=N/NC2=N/C(=C\c3ccco3)C(=O)N2)cc1 | > 100 µM | > 100 µM | > 100 µM | > 100 µM | > 100 µM | > 100 µM | > 100 µM | > 100 µM | > 100 µM | > 100 µM | – | – | – | – | –
COc1cccc(C2c3cc4c(cc3OC(N3CCOCC3)C2C)OCO4)c1O (stereo not given) | 25 µM | 40.7 µM | 6.69 µM | 19.1 µM | 60.5 µM | 75.6 µM | 12.7 µM | 8.39 µM | 25 µM | 76.1 µM | – | – | – | – | –
c1ccc2c(c1)SC1Sc3ccccc3[S+]21 (stereo not given) | 45.6 µM | > 100 µM | 60.9 µM | 51 µM | 33.6 µM | > 100 µM | 45.5 µM | 26.1 µM | 87.7 µM | 37.2 µM | – | – | – | – | –
CCCCCc1c(CCCC)c(=O)[nH]c2cc(CNCC(OC)OC)ccc12 | 18.8 µM | 28.4 µM | 43.9 µM | 26.9 µM | 28.1 µM | 32.3 µM | 23.9 µM | 34.6 µM | 8.1 µM | 28 µM | – | – | – | – | –
NC1CCC(c2cc3ccccc3s2)(N2CCCCC2)CC1 (stereo not given) | 2.84 µM | 2.95 µM | 4.58 µM | 2.42 µM | 3.1 µM | 22.6 µM | 3.05 µM | 4.15 µM | 2.88 µM | 3.08 µM | – | – | – | – | –
Cn1c(N/N=C/c2ccc(Cl)cc2)nc(-c2ccc(Cl)cc2)c(C#N)c1=O | 57.6 µM | 33.1 µM | > 100 µM | > 100 µM | > 100 µM | > 100 µM | 72.1 µM | 33.6 µM | 42 µM | 67.5 µM | – | – | – | – | –
Nc1cc(CO)cc(Nc2c3ccccc3nc3occc23)c1 | > 100 µM | 73.9 µM | 74.4 µM | 62.6 µM | > 100 µM | > 100 µM | > 100 µM | 39.9 µM | 93.2 µM | 81.6 µM | – | – | – | – | –
CCCCCC(C)C[C@H]1CO[C@H](c2ccc[nH]2)N[C@H]1C(=O)OC (stereo not given in full) | > 100 µM | > 100 µM | > 100 µM | > 100 µM | > 100 µM | > 100 µM | > 100 µM | > 100 µM | > 100 µM | > 100 µM | – | – | – | – | –
Cc1nc2ccccc2n1CCc1nc2ccccc2s1 | > 100 µM | > 100 µM | 60.8 µM | > 100 µM | > 100 µM | > 100 µM | > 100 µM | > 100 µM | > 100 µM | > 100 µM | – | – | – | – | –

Compound | TGI (LOX IMVI melanoma) | TGI (SK-MEL-2 melanoma) | TGI (HL-60(TB) leukemia) | TGI (NCI/ADR-RES ovarian) | TGI (SN12C renal) | TGI (SK-OV-3 ovarian) | TGI (U251 CNS) | TGI (NCI-H522 lung) | TGI (M14 melanoma) | TGI (BT-549 breast) | GI50 (LOX IMVI melanoma) | GI50 (SK-MEL-2 melanoma) | GI50 (HL-60(TB) leukemia) | GI50 (NCI/ADR-RES ovarian) | GI50 (M14 melanoma)
CC[C@H]1C=CCC[C@@]2(C[C@@H]3CC[C@@H]4[C@H](C(=O)OCCCCCCCCCCCCCCCC(=O)N(CCCN)C[C@@H](O)CCN)[C@]5(CCC[C@@H](C)O5)NC(=[N+]34)N2)O1 | 0.721 µM | 0.673 µM | 1.36 µM | > 10 µM | > 5.62 µM | 4.77 µM | 1.68 µM | 0.573 µM | 0.0599 µM | 2.61 µM | – | – | – | – | –
COC(=O)/C=C1/OC(c2ccccc2)=C(Cl)C1=O | 26.8 µM | 45.8 µM | 16.2 µM | 61.9 µM | > 60.1 µM | > 100 µM | 27.1 µM | 33 µM | 35.2 µM | 40.3 µM | – | – | – | – | –
O=C(CSc1nc2ccc(I)cc2c(=O)n1Cc1ccccc1)Nc1ccc(Br)cc1 | > 100 µM | > 100 µM | > 100 µM | > 100 µM | > 100 µM | > 100 µM | > 100 µM | > 100 µM | > 100 µM | > 100 µM | – | – | – | – | –
CCn1c2c(c3c(C(=O)OC)c(O)ccc31)C(=O)c1ccccc1C2=O | 71.6 µM | 30.5 µM | 57.3 µM | 66 µM | 29.4 µM | 30.4 µM | 36.3 µM | 23.8 µM | 28.3 µM | 39.5 µM | – | – | – | – | –
CC1CC[C@]2(C(=O)O)CCC3(C)C(=C2[C@H]1C)C=CC1[C@@]2(C)CC[C@H](O)C(C)(C)C2CC[C@]13C (stereo not given in full) | > 100 µM | > 100 µM | > 100 µM | > 100 µM | > 100 µM | 45.5 µM | 97.7 µM | > 100 µM | > 100 µM | > 100 µM | – | – | – | – | –
CN(C)Cc1cc(C(=O)O)cc(CN(C)C)c1O | > 100 µM | > 100 µM | > 100 µM | > 100 µM | > 100 µM | > 100 µM | > 100 µM | > 100 µM | > 100 µM | > 100 µM | – | – | – | – | –
Fc1cccc2nc(-c3ccccc3)cc(OCc3ccccc3)c12 | > 100 µM | > 100 µM | > 100 µM | > 100 µM | > 100 µM | > 100 µM | > 100 µM | > 100 µM | > 100 µM | > 100 µM | – | – | – | – | –
c1ccc(N=NNNc2ccc(-c3nc4ccccc4[nH]3)cc2)cc1 | > 100 µM | 88.7 µM | 62.1 µM | 75.1 µM | 98.1 µM | > 100 µM | > 100 µM | > 100 µM | > 100 µM | 76.8 µM | – | – | – | – | –
COc1cc2[nH]c(-c3ccccc3)cc(=O)c2cc1OC | > 100 µM | > 100 µM | 41 µM | > 100 µM | > 100 µM | > 100 µM | > 100 µM | > 56.3 µM | > 76.2 µM | > 100 µM | – | – | – | – | –
C=C[C@H]1CN2CC[C@H]1C[C@@H]2[C@@H](O)c1ccnc2ccccc12 | > 100 µM | > 100 µM | > 100 µM | > 100 µM | > 100 µM | > 100 µM | > 100 µM | > 100 µM | > 100 µM | > 100 µM | – | – | – | – | –
COc1cc2c(cc1OCCCC(=O)Nc1cc(C(=O)Nc3cc(C(=O)NCCCN(C)C)n(C)n3)n(C)n1)N=CC1CCCN1C2=O (stereo not given) | 57 µM | 31.2 µM | 32.1 µM | 57.3 µM | 30.1 µM | > 100 µM | 39.5 µM | 20.2 µM | 33.8 µM | 26.5 µM | – | – | – | – | –
CC(=O)Oc1ccc2c(c1)CC[C@@H]1C2[C@@H](O[N+](=O)[O-])C[C@@]2(C)C1CC[C@@H]2O (stereo not given in full) | > 81.2 µM | > 100 µM | 34.4 µM | 97.3 µM | > 100 µM | > 100 µM | > 100 µM | > 86.7 µM | > 100 µM | > 100 µM | – | – | – | – | –
Cc1c2cc[n+](C)cc2c(C)c2c1[nH]c1ccccc12 | 48.3 µM and 27.4 µM | 2.85 µM and 3.5 µM | 66.9 µM and 63.5 µM | > 100 µM | 1.29 µM and 1.2 µM | 64.7 µM and 64.2 µM | 1.94 µM and 2.74 µM | 3.6 µM and 3.45 µM | > 100 µM | 8.07 µM | – | – | – | 48 µM and 15 µM | –
CN(C)c1ccc(C(c2ccc(N(C)C)cc2)c2ccc([N+](=O)[O-])cc2)cc1 | > 100 µM | > 100 µM | > 100 µM | > 100 µM | > 100 µM | > 100 µM | > 100 µM | > 100 µM | > 100 µM | > 100 µM | – | – | – | – | –
NNC(=O)c1ccccc1NC(=O)/C(=C/c1ccccc1)NC(=O)c1ccccc1 | > 100 µM | > 100 µM | > 100 µM | > 100 µM | > 100 µM | > 100 µM | > 100 µM | > 100 µM | > 100 µM | > 100 µM | – | – | – | – | –
Cc1ccc2c3c1O[C@H]1c4nc5ccccc5cc4C[C@@]4(O)[C@@H](C2)N(CC2CC2)CC[C@]314 | 17 µM | 35.5 µM | 26.1 µM | 23.5 µM | > 100 µM | 31.3 µM | 18.7 µM | 27.5 µM | 25.9 µM | 25.5 µM | – | – | – | – | –
